Assay results published in ChEMBL document CHEMBL4808200, “Identification of a Series of N-Methylpyridine-2-carboxamides as Potent and Selective Inhibitors of the Second Bromodomain (BD2) of the Bromo and Extra Terminal Domain (BET) Proteins” (J Med Chem, 2021).
≈ marks a conversion by molar mass, not a printed value.

How the values were obtained:
[1] = Permeability of the compound at pH 7.4 by artificial membrane permeability assay; type: ADME; details: PAMPA, read-out: permeability
[2] = Solubility of the compound in pH 6.5 FaSSIF at […] measured after 16 hrs by HPLC analysis; type: physicochemical
physchem = details: buffer, pH 7.4
[3] = Half life in Wistar Han rat at 1 mg/kg, iv administered as 1 hr infusion or 3 mg/kg, po administered via gavage by LC-MS/MS analysis; type: ADME, organism-based; details: in vivo
[4] = Intrinsic clearance in human cryopreserved pooled hepatocytes at 0.5 uM measured up to 120 mins by LC-MS/MS analysis; type: ADME, tissue-based, Hepatocyte; details: 2 h
[5] = Clearance in Wistar Han rat at 1 mg/kg, iv administered as 1 hr infusion or 3 mg/kg, po administered via gavage by LC-MS/MS analysis; type: ADME, organism-based; details: in vivo
[6] = Intrinsic clearance in Wistar Han rat cryopreserved pooled hepatocytes at 0.5 uM measured up to 60 mins by LC-MS/MS analysis; type: ADME, tissue-based, Hepatocyte; details: 1 h
[7] = Intrinsic clearance in Beagle dog cryopreserved pooled hepatocytes at 0.5 uM measured up to 120 mins by LC-MS/MS analysis; type: ADME, tissue-based, Canis lupus familiaris, Hepatocyte; details: 2 h
[8] = Volume of distribution at steady state in Wistar Han rat at 1 mg/kg, iv administered as 1 hr infusion or 3 mg/kg, po administered via gavage by LC-MS/MS analysis; type: ADME, organism-based; details: in vivo, read-out: Vdss
[9] = Oral bioavailability in Wistar Han rat at 3 mg/kg administered via gavage by LC-MS/MS analysis; type: ADME, organism-based; details: in vivo
[10] = Unbound clearance in Wistar Han rat at 1 mg/kg, iv administered as 1 hr infusion or 3 mg/kg, po administered via gavage by LC-MS/MS analysis; type: ADME, organism-based; details: in vivo

Q: Which Papp [1] does the source give for `CNC(=O)c1cccc(Cc2ccccc2)n1` here?
A: 77 ×10⁻⁶ cm/s

Q: What about the solubility at 16 h [2] of the same compound?
A: 258 µg/mL (≈ 1140 µM)

Q: What about the chromatographic logD (physchem) of the same compound?
A: 4.3

Q: What does the source list for `CNC(=O)c1cc(C(=O)N[C@H]2[C@@H]3COC[C@@H]32)cc(C(CC#N)c2ccccc2)n1` (stereo partly drawn)?
A: half-life [3]: 4.4 h; CLH [4]: < 0.45 mL/min/g; Papp [1]: 20 ×10⁻⁶ cm/s; clearance [5]: 70 mL/min/kg; CLH [6]: 1.87 mL/min/g; CLH [7]: < 0.65 mL/min/g; solubility at 16 h [2]: 930 µg/mL (≈ 2380 µM); Vd [8]: 5.9 L/kg; chromatographic logD (physchem): 3.1; bioavailability [9]: 54%

Q: Which results are given for `CNC(=O)c1cc(C(=O)N[C@H]2C[C@@H]2C)cc(Cc2ccccc2)n1`?
A: Papp [1]: 63 ×10⁻⁶ cm/s; solubility at 16 h [2]: 94 µg/mL (≈ 291 µM); chromatographic logD (physchem): 4.6

Q: With `CC(=O)Nc1ccc(C(=O)NCCc2cnc[nH]2)cc1OCc1ccccc1` as the compound, how does the chromatographic logD (physchem) read?
A: 2.2

Q: Which half-life [3] does the source give for `CNC(=O)c1cc(C(=O)NC2CC2)cc(Cc2ccccc2)n1` here?
A: 0.3 h

Q: What about the CLH [4] of the same compound?
A: < 0.87 mL/min/g

Q: What about the Papp [1] of the same compound?
A: 38.5 ×10⁻⁶ cm/s

Q: What about the clearance [5] of the same compound?
A: 12 mL/min/kg

Q: And the CL free [10]?
A: 343 mL/min/kg

Q: And the CLH [6]?
A: 5.3 mL/min/g

Q: What about the CLH [7] of the same compound?
A: < 1.3 mL/min/g

Q: What about the solubility at 16 h [2] of the same compound?
A: 89 µg/mL (≈ 288 µM)

Q: And the Vd [8]?
A: 0.4 L/kg

Q: What about the chromatographic logD (physchem) of the same compound?
A: 3.9

Q: And the bioavailability [9]?
A: 29%

Q: What does the source list for `CNC(=O)c1cc(C(=O)N[C@H]2[C@@H]3C[C@@H](O)C[C@@H]32)cc([C@@H](C)c2ccccc2)n1`?
A: Papp [1]: 13 ×10⁻⁶ cm/s; solubility at 16 h [2]: 744 µg/mL (≈ 1960 µM); chromatographic logD (physchem): 3.6

Q: Which results are given for `CNC(=O)c1cc(C(=O)NC2CC2)cc(Cc2cccc3cn[nH]c23)n1`?
A: Papp [1]: 20 ×10⁻⁶ cm/s; chromatographic logD (physchem): 2.9

Q: For `CNC(=O)c1cc(C(=O)N[C@H]2C[C@H](O)C2)cc(Cc2ccccc2)n1`, which Papp [1] is on record?
A: 7.3 ×10⁻⁶ cm/s

Q: What about the solubility at 16 h [2] of the same compound?
A: 194 µg/mL (≈ 572 µM)

Q: And the chromatographic logD (physchem)?
A: 2.7

Q: Which Papp [1] does the source give for `CNC(=O)c1cc(C(=O)N[C@H]2[C@@H]3C[C@@H](O)C[C@@H]32)cc(Cc2ccccc2)n1` here?
A: 7.1 ×10⁻⁶ cm/s

Q: What about the solubility at 16 h [2] of the same compound?
A: 143 µg/mL (≈ 391 µM)

Q: And the chromatographic logD (physchem)?
A: 3.1

Q: What does the source list for `CNC(=O)c1cc(C(=O)N[C@H]2[C@@H]3C[C@@H](O)C[C@@H]32)cc(C(OC)c2ccccc2)n1` (stereo partly drawn)?
A: half-life [3]: 0.7 h; CLH [4]: < 0.45 mL/min/g; Papp [1]: 5.6 ×10⁻⁶ cm/s; clearance [5]: 57 mL/min/kg; CL free [10]: 95 mL/min/kg; CLH [6]: < 0.8 mL/min/g; CLH [7]: < 0.65 mL/min/g; Vd [8]: 1.8 L/kg; chromatographic logD (physchem): 2.9; bioavailability [9]: 77%

Q: With `CNC(=O)c1cc(C(=O)NC2CC2)cn([C@@H](C)c2ccccc2)c1=O` as the compound, how does the solubility at 16 h [2] read?
A: 598 µg/mL (≈ 1760 µM)

Q: And the chromatographic logD (physchem)?
A: 3.3

Q: For `CNC(=O)c1cc(C(=O)NC2CC2)cn([C@H](C)c2ccccc2)c1=O`, which chromatographic logD (physchem) is on record?
A: 3.5

Q: With `CNC(=O)c1cc(C(=O)N[C@H]2C[C@@H]2C)cc([C@@H](CC#N)c2ccccc2)n1` as the compound, how does the Papp [1] read?
A: 35.3 ×10⁻⁶ cm/s

Q: And the chromatographic logD (physchem)?
A: 4

Q: For `CNC(=O)c1cc(C(=O)NC2CC2)cc(Cc2cccc3[nH]ccc23)n1`, which Papp [1] is on record?
A: 30.5 ×10⁻⁶ cm/s

Q: What about the chromatographic logD (physchem) of the same compound?
A: 3.5

Q: Which results are given for `CNC(=O)c1cc(C(=O)NC2CC2)cc([C@@H](O)c2ccccc2)n1`?
A: Papp [1]: 7.15 ×10⁻⁶ cm/s; solubility at 16 h [2]: > 1000 µg/mL; chromatographic logD (physchem): 2.4

Q: For `CNC(=O)c1cc(C(=O)NC2CCOCC2)cc(Cc2ccccc2)n1`, which Papp [1] is on record?
A: 22 ×10⁻⁶ cm/s

Q: And the solubility at 16 h [2]?
A: 173 µg/mL (≈ 489 µM)

Q: And the chromatographic logD (physchem)?
A: 3.7

Q: With `CNC(=O)c1cc(C(=O)NC2CC2)cn(Cc2cccc3[nH]ccc23)c1=O` as the compound, how does the Papp [1] read?
A: 17.8 ×10⁻⁶ cm/s

Q: And the solubility at 16 h [2]?
A: 20 µg/mL (≈ 54.9 µM)

Q: With `CNC(=O)c1cc(C(=O)NC2CC2)cc(Cc2cccc3c2CCN3)n1.Cl` as the compound, how does the half-life [3] read?
A: 1.9 h

Q: And the CLH [4]?
A: < 0.45 mL/min/g

Q: And the Papp [1]?
A: 19 ×10⁻⁶ cm/s

Q: And the clearance [5]?
A: 33 mL/min/kg

Q: And the CL free [10]?
A: 73 mL/min/kg

Q: What about the CLH [6] of the same compound?
A: 0.88 mL/min/g

Q: And the CLH [7]?
A: < 0.65 mL/min/g

Q: What about the solubility at 16 h [2] of the same compound?
A: 953 µg/mL

Q: And the Vd [8]?
A: 4.1 L/kg

Q: What about the chromatographic logD (physchem) of the same compound?
A: 3

Q: And the bioavailability [9]?
A: 98%

Q: Which Papp [1] does the source give for `CNC(=O)c1cc(C(=O)NC2COC2)cc(Cc2ccccc2)n1` here?
A: 16 ×10⁻⁶ cm/s

Q: And the solubility at 16 h [2]?
A: 73 µg/mL (≈ 224 µM)

Q: What about the chromatographic logD (physchem) of the same compound?
A: 3.1
